Source: patent US11957759B1, “Rapidly accelerated fibrosarcoma (RAF) degrading compounds and associated methods of use” (Arvinas Operations, Inc., priority 2022, dated 2024)

Key:
[1] = biological target: T1, B-RAF G466V (Homo sapiens, UniProt P15056, G466V); test: Target protein degradation, assay D: T-Rex 293 cells, HA-BRAF_G466V, 384 well format; assay type: cell-based; conditions: T-Rex 293 HA-BRAF_G466V cells, 24 hours, Examples 83-269; for DC50: Assay D; for Dmax: T-REx-293, Assay D
T1 construct: expressed in transfected cells; host or cells: T-Rex 293 cells (Invitrogen #R71007)
T1 sequence (P15056 whole entry G466V): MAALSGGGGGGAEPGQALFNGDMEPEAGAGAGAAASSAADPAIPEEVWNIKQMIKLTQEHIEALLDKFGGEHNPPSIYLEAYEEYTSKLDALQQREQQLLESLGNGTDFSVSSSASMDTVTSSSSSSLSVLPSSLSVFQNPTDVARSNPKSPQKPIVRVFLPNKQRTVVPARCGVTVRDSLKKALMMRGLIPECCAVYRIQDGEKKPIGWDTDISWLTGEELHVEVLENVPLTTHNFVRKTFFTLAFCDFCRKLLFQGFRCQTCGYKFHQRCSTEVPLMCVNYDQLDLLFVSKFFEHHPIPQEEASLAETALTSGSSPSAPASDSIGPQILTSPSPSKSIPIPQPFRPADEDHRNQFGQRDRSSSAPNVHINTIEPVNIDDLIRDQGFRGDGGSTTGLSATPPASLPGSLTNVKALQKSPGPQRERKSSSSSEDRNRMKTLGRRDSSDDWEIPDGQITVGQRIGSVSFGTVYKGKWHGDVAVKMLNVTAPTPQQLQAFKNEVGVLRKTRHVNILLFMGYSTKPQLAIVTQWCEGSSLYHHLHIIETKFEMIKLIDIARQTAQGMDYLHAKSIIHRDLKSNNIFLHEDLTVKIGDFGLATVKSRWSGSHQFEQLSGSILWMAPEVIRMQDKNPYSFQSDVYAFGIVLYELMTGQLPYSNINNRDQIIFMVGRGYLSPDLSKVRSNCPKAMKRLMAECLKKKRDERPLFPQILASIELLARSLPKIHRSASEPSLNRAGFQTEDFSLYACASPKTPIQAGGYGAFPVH
Experimental: D. T-Rex 293 Cells (384 Well Format)
(§1) T-Rex 293 cells were purchased from Invitrogen (#R71007), and stably transfected with a pcDNA4/TO_HA-BRAF_G466V construct, using 400 ug Zeocin for selection. G466V cells are plated in DMEM media (Gibco #11965118) containing 10% FBS (Gibco #16000044), 1% penicillin-streptomycin (ThermoFisher #15140122), 1:250 zeocin (Invitrogen #R-25005), and 1 ng/mL doxycycline (Selleckchem #4163) at a density of 7,500 cells/well in 45 μl on PDL coated, black clear bottom 384 well plates (Corning #354663) and incubated at 37° C.+5% CO2 for 24 hours. The following day, PROTAC compounds in a 1:3 11 point dilution are diluted into DMEM media using an Agilent Bravo. 5 ul of PROTACs suspended in DMEM media are added to the cells, with a final assay concentration ranging from 300 nM to 5 pM in 0.5% DMSO. Plates are incubated at 37° C.+5% CO2 for 24 hours. At the end of treatment, media is aspirated, and cells are fixed in 50 uL 4% PFA (EMS #15710) in PBS++(PBS, 1 mM CaCl, 1 mM MgCl) at RT for 15 minutes. Cells are washed 2× with 60 uL PBS++ and permeabilized in 50 uL 1% Triton X-100 (Sigma #93443) in PBS++ for 5 minutes at RT. Cells are washed in PBS++ prior to blocking with 50 uL Licor blocking buffer (Licor #927-60001) for 1 hour at RT. HA-tagged BRAF was stained using 50 uL HA antibody (CST #3724) at 1:1000 in Licor blocking buffer for two hours at RT. Primary is aspirated before adding 50 ul of secondary antibody solution containing 1:1000 Hoechst (ThermoFisher #62249), 1:1000 HCS CellMask Deep Red Stain (ThermoFisher #H32721), and 1:5000 goat anti-rabbit IgG Alexa-Fluor 488 (ThermoFisher #A32731) in PBS++ for 1 hr at RT. Plates are washed 4× with 60 uL PBS++, then sealed with Adhesive Black Light Absorbing Film (VWR #89087-692) and imaged on the ThermoFisher CX7 PRO high content instrument. BRAF intensity is quantified in HCS Studio software (ThermoFisher), using a custom script, exported, analyzed using KNIME, and curve curation is performed in an ELN (Scilligence). Cell toxicity is measured via comparing number of nuclei in PROTAC treated wells to DMSO controls.
(§2) The concentration of an exemplary compound that leads to half maximal degradation (DC50) as well as the maximum degradation observed (Dmax, conventionally expressed as a percentage of control) is shown below in Table 2.

[2] = biological target: T2, B-RAF V600E (Homo sapiens, UniProt P15056, V600E); test: Target protein degradation, assay C: T-Rex 293 cells, HA-BRAF_V600E, 384 well format; assay type: cell-based; conditions: T-Rex 293 HA-BRAF_V600E cells, 24 hours, Examples 83-269; for DC50: Assay C; for Dmax: T-REx-293, Assay C
T2 construct: expressed in transfected cells; host or cells: T-Rex 293 cells (Invitrogen #R71007)
T2 sequence (P15056 whole entry V600E): as the sequence (P15056 whole entry G466V) above, with V466G, V600E counted along it
Experimental: C. T-Rex 293 Cells (384 Well Format)
as §1, with “pcDNA4/TO_HA-BRAF_V600E” for “pcDNA4/TO_HA-BRAF_G466V”, “V600E” for “G466V”
as §2

SMILES	DC50 [1]	DC50 [2]	Dmax [1]	Dmax [2]
N#Cc1c(NS(=O)(=O)N2CC[C@@H](F)C2)ccc(F)c1Oc1ccc2ncn(-c3ccc(N4CC(CN5CCN(C6CCN(c7ccc8c(c7)CN(C7CCC(=O)NC7=O)C8=O)CC6)CC5)C4)cc3)c(=O)c2c1 (single isomer, unassigned) [Example 198, (3R)-N-[2-cyano-3-({3-[4-(3-{[4-(1-{2-[(3R*)-2,6-dioxopiperidin-3-yl]-1-oxo-2,3-dihydro-1H-isoindol-5-yl}piperidin-4-yl)piperazin-1-yl]methyl}azetidin-1-yl)phenyl]-4-oxo-3,4-dihydroquinazolin-6-yl}oxy)-4-fluorophenyl]-3-fluoropyrrolidine-1-sulfonamide]	1 to 10 nM	50 to 500 nM	–	–
N#Cc1c(NS(=O)(=O)N2CC[C@@H](F)C2)ccc(F)c1Oc1ccc2ncn(-c3ccc(N4CCN(CC5CCN(c6cc7c(c(OC(F)(F)F)c6)C(=O)N(C6CCC(=O)NC6=O)C7)CC5)CC4)cc3)c(=O)c2c1 (stereo partly drawn) [Example 265, (3R)-N-{2-cyano-3-[(3-{4-[4-({1-[2-(2,6-dioxopiperidin-3-yl)-1-oxo-7-(trifluoromethoxy)-2,3-dihydro-1H-isoindol-5-yl]piperidin-4-yl}methyl)piperazin-1-yl]phenyl}-4-oxo-3,4-dihydroquinazolin-6-yl)oxy]-4-fluorophenyl}-3-fluoropyrrolidine-1-sulfonamide]	10 to 30 nM	50 to 500 nM	35 to 70%	35 to 70%
N#Cc1c(NS(=O)(=O)N2CC[C@@H](F)C2)ccc(F)c1Oc1ccc2ncn(-c3ccc(N4CCC(CN5CCC6(CCC(c7ccc8c(c7)CN([C@H]7CCC(=O)NC7=O)C8=O)CC6)CC5)CC4)cc3)c(=O)c2c1 [Example 262, (3R)-N-(2-cyano-3-{[3-(4-{4-[(9-{2-[(3S)-2,6-dioxopiperidin-3-yl]-1-oxo-2,3-dihydro-1H-isoindol-5-yl}-3-azaspiro[5.5]undecan-3-yl)methyl]piperidin-1-yl}phenyl)-4-oxo-3,4-dihydroquinazolin-6-yl]oxy}-4-fluorophenyl)-3-fluoropyrrolidine-1-sulfonamide]	1 to 10 nM	5 to 50 nM	≥ 70%	≥ 70%
N#Cc1c(NS(=O)(=O)N2CC[C@@H](F)C2)ccc(F)c1Oc1ccc2ncn(-c3ccc(N4CCC5(CCN(CC6CCN(c7ccc8c(c7)CN([C@H]7CCC(=O)NC7=O)C8=O)CC6)CC5)CC4)cc3)c(=O)c2c1 [Example 200, (3R)-N-(2-cyano-3-{[3-(4-{9-[(1-{2-[(3S)-2,6-dioxopiperidin-3-yl]-1-oxo-2,3-dihydro-1H-isoindol-5-yl}piperidin-4-yl)methyl]-3,9-diazaspiro[5.5]undecan-3-yl}phenyl)-4-oxo-3,4-dihydroquinazolin-6-yl]oxy}-4-fluorophenyl)-3-fluoropyrrolidine-1-sulfonamide]	1 to 10 nM	50 to 500 nM	35 to 70%	35 to 70%
N#Cc1c(NS(=O)(=O)N2CC[C@@H](F)C2)ccc(F)c1Oc1ccc2ncn(-c3ccc(N4CCC(CC5CCCN5c5ccc6c(c5)C(=O)N(C5CCC(=O)NC5=O)C6=O)CC4)nc3)c(=O)c2c1 (stereo partly drawn) [Example 160, (3R)-N-{2-cyano-3-[(3-{6-[4-({1-[2-(2,6-dioxopiperidin-3-yl)-1,3-dioxo-2,3-dihydro-1H-isoindol-5-yl]pyrrolidin-2-yl}methyl)piperidin-1-yl]pyridin-3-yl}-4-oxo-3,4-dihydroquinazolin-6-yl)oxy]-4-fluorophenyl}-3-fluoropyrrolidine-1-sulfonamide]	> 30 nM	50 to 500 nM	–	≤ 35%
N#Cc1c(NS(=O)(=O)N2CC[C@@H](F)C2)ccc(F)c1Oc1ccc2ncn(-c3ccc(N4CCC(CN5CC(c6ccc7c(c6)CN([C@@H]6CCC(=O)NC6=O)C7=O)C5)CC4)cc3)c(=O)c2c1 [Example 216]	1 to 10 nM	50 to 500 nM	≤ 35%	35 to 70%
CN(c1ccc2c(c1)CN([C@H]1CCC(=O)NC1=O)C2=O)[C@H]1CC[C@@H](N2CCN(c3ccc(-n4cnc5ccc(Oc6c(F)ccc(NS(=O)(=O)N7CC[C@@H](F)C7)c6C#N)cc5c4=O)cc3)CC2)CC1 [Example 230, (3R)-N-(2-cyano-4-fluoro-3-{[4-oxo-3-(4-(4-[(1r,4r)-4-({2-[(3S)-2,6-dioxopiperidin-3-yl]-1-oxo-2,3-dihydro-1H-isoindol-5-yl}(methyl)amino)cyclohexyl]piperazin-1-yl}phenyl)-3,4-dihydroquinazolin-6-yl]oxy}phenyl)-3-fluoropyrrolidine-1-sulfonamide]	1 to 10 nM	50 to 500 nM	35 to 70%	35 to 70%
N#Cc1c(NS(=O)(=O)N2CC[C@@H](F)C2)ccc(F)c1Oc1ccc2ncn(-c3ccc(N4CCN(CC5CCN(c6ccc(F)c(C(=O)NC7CCC(=O)NC7=O)c6)CC5)CC4)nc3)c(=O)c2c1 (stereo partly drawn) [Example 140, 5-(4-{[4-(5-{6-[2-cyano-6-fluoro-3-({[(3R)-3-fluoropyrrolidin-1-yl]sulfonyl}amino)phenoxy]-4-oxo-3,4-dihydroquinazolin-3-yl}pyridin-2-yl)piperazin-1-yl]methyl}piperidin-1-yl)-N-(2,6-dioxopiperidin-3-yl)-2-fluorobenzamide]	> 30 nM	50 to 500 nM	–	≤ 35%
N#Cc1c(NS(=O)(=O)N2CC[C@@H](F)C2)ccc(F)c1Oc1ccc2ncn(-c3ccc(N4CCN(CC5CCN(c6ccc7c(c6)CN(C6CCC(=O)NC6=O)C7=O)CC5)CC4)cc3F)c(=O)c2c1 (stereo partly drawn) [Example 87, (3R)-N-{2-cyano-3-[(3-{4-[4-({1-[2-(2,6-dioxopiperidin-3-yl)-1-oxo-2,3-dihydro-1H-isoindol-5-yl]piperidin-4-yl}methyl)piperazin-1-yl]-2-fluorophenyl}-4-oxo-3,4-dihydroquinazolin-6-yl)oxy]-4-fluorophenyl}-3-fluoropyrrolidine-1-sulfonamide]	> 30 nM	> 500 nM	–	–
